Holding throughout (format): in vivo
Assay [1] has as its system broad-leaf weeds and grass weeds. The assay is described as follows: General screening of herbicidal activity in greenhouse.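 Further: 0 means no visible effect and 100 means all weeds dead or not emerged.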 Particulars: 1000 g a.i./hm^2. The protocol: (§1) Determination of herbicidal activity of compounds of the present invention against weeds was carried out by the following procedures:
(§2) Seeds of monocotyledonous and dicotyledonous weeds were sown in nutrition soil in paper pot (7 cm diameter), covered with soil in 1 cm and grown in the greenhouse under good growth conditions (temperature, atmospheric humidity, water supply). The compounds of the present invention as emulsifiable concentrate, were applied in pre-emergence and post-emergence treatment by track sprayer (Engineer Research Ltd., pressure 1.95 kg/cm^2, volume 500 L/hm^2, track speed 1.48 km/h). Pre-emergence treatment was conducted after seeding 24 hours and post-emergence treatment was done when the respective weeds reached predetermined leaf stage (grass weed 2- to 3-leaf stage, broad-leaf weed 2- to 4-leaf stage), the state of growth of the respective weeds were visually observed to determine the growth inhibition rate (%) in accordance with the following evaluation standard.
(§3) Growth inhibition rate (%): 0=no discernible action: 100=all weeds dead or not emerged.

The test system of assay [2] is Abutilon theophrasti Medic. The assay is described as follows: Bioassay of herbicidal activity in greenhouse (further screening). How it is done: as §1, §2, §3
For assay [3], the system named is Echinochloa crus-galli (L.) Beauv. The assay is described as above. How it is done:
as §1, §2, §3

Assay [4] relates to Setaria glauca (L.) Beauv. The description is as above. How it is done: as §1, §2, §3
For a further assay, the system named is Zinnia elegans Jacq. Described as above. The protocol: as §1, §2, §3

`Cn1c(C(F)(F)F)cc(=O)n(-c2cc(C3=NOC(C)(COC(=O)c4cc(Oc5ccc(C(F)(F)F)cc5Cl)ccc4[N+](=O)[O-])C3)c(Cl)cc2F)c1=O` (centres unmarked) [Compound 67]: the “pre-emergence and post-emergence herbicidal activity against broad-leaf weeds and grass weeds” value in assay [1] was “good”.
The same measure, in the same setting: the same measure for `COc1c(Cl)ccc(Cl)c1C(=O)OCC1(C)CC(c2cc(-n3c(=O)cc(C(F)(F)F)n(C)c3=O)c(F)cc2Cl)=NO1` (centres unmarked) [Compound 66]: “good”.
With `CCOC(=O)C1(C)CC(c2cc(-n3c(=O)cc(C(F)(F)F)n(C)c3=O)ccc2Cl)=NO1` (centres unmarked) [Compound 284], the “Growth inhibition rate, Post-emergence treatment, Abutilon theophrasti Medic.” value in assay [2] (dose 37.5 g a.i./hm^2) was determined as 95%; in assay [2] (dose 150 g a.i./hm^2) it was 100%; in assay [2] (dose 600 g a.i./hm^2), 100%. The “Growth inhibition rate, Pre-emergence treatment, Abutilon theophrasti Medic.” value in assay [2] (dose 37.5 g a.i./hm^2) worked out at 0%; in assay [2] (dose 150 g a.i./hm^2), 50%; in assay [2] (dose 600 g a.i./hm^2) it was 65%. The results for the “Growth inhibition rate, Post-emergence treatment, Echinochloa crus-galli (L.) Beauv.” value in assay [3] (dose 37.5 g a.i./hm^2), in assay [3] (dose 150 g a.i./hm^2) and in assay [3] (dose 600 g a.i./hm^2) were 70%, 80% and 100%, respectively. Further, the “Growth inhibition rate, Pre-emergence treatment, Echinochloa crus-galli (L.) Beauv.” value in assay [3] (dose 37.5 g a.i./hm^2) was found to be 0%; in assay [3] (dose 150 g a.i./hm^2) it was 10%; in assay [3] (dose 600 g a.i./hm^2) it was 20%. For the same compound, the entries for the “Growth inhibition rate, Post-emergence treatment, Setaria glauca (L.) Beauv.” value in assay [4] (dose 37.5 g a.i./hm^2), in assay [4] (dose 150 g a.i./hm^2) and in assay [4] (dose 600 g a.i./hm^2) were 75%, 90% and 100%, respectively. The “Growth inhibition rate, Pre-emergence treatment, Setaria glauca (L.) Beauv.” value in assay [4] (dose 37.5 g a.i./hm^2) was determined as 0%; in assay [4] (dose 150 g a.i./hm^2) it was 10%; in assay [4] (dose 600 g a.i./hm^2), 20%. In addition, the “Growth inhibition rate, Post-emergence treatment, Zinnia elegans Jacq.” value in the assay with Zinnia elegans Jacq. (dose 37.5 g a.i./hm^2), with Zinnia elegans Jacq. (dose 150 g a.i./hm^2) and with Zinnia elegans Jacq. (dose 600 g a.i./hm^2) was 100% each time. Further, the “Growth inhibition rate, Pre-emergence treatment, Zinnia elegans Jacq.” value in the assay with Zinnia elegans Jacq. (dose 37.5 g a.i./hm^2) was 0%; in the assay on Zinnia elegans Jacq. (dose 150 g a.i./hm^2), 10%; in the assay on Zinnia elegans Jacq. (dose 600 g a.i./hm^2), 35%. In assay [1], the “pre-emergence and post-emergence herbicidal activity against broad-leaf weeds and grass weeds” value is “good”.
In the case of `CCCOC(=O)C1(C)CC(c2cc(-n3c(=O)cc(C(F)(F)F)n(C)c3=O)c(F)cc2Cl)=NO1` (centres unmarked) [Compound 7], the “Growth inhibition rate, Post-emergence treatment, Abutilon theophrasti Medic.” value in assay [2] (dose 7.5 g a.i./hm^2) came to 75%; in assay [2] (dose 15 g a.i./hm^2), 98%; in assay [2] (dose 30.0 g a.i./hm^2), 100%; in assay [2] (dose 60.0 g a.i./hm^2), 100%; in assay [2] (dose 120.0 g a.i./hm^2) it was 100%. For the same compound, the “Growth inhibition rate, Post-emergence treatment, Echinochloa crus-galli (L.) Beauv.” value in assay [3] (dose 7.5 g a.i./hm^2) is 25%; in assay [3] (dose 15 g a.i./hm^2), 90%; in assay [3] (dose 30.0 g a.i./hm^2), 98%; in assay [3] (dose 60.0 g a.i./hm^2), 100%; in assay [3] (dose 120.0 g a.i./hm^2) it was 100%. Besides, the “Growth inhibition rate, Post-emergence treatment, Setaria glauca (L.) Beauv.” value in assay [4] (dose 7.5 g a.i./hm^2) is 55%; in assay [4] (dose 15 g a.i./hm^2), 90%; in assay [4] (dose 30.0 g a.i./hm^2), 90%; in assay [4] (dose 60.0 g a.i./hm^2), 100%; in assay [4] (dose 120.0 g a.i./hm^2), 100%. Also, the “Growth inhibition rate, Post-emergence treatment, Zinnia elegans Jacq.” value in the assay on Zinnia elegans Jacq. (dose 7.5 g a.i./hm^2) stood at 55%; in the assay with Zinnia elegans Jacq. (dose 15 g a.i./hm^2), 60%; with Zinnia elegans Jacq. (dose 30.0 g a.i./hm^2), 75%; with Zinnia elegans Jacq. (dose 60.0 g a.i./hm^2) it was 98%; with Zinnia elegans Jacq. (dose 120.0 g a.i./hm^2), 100%. For the same compound, the “pre-emergence and post-emergence herbicidal activity against broad-leaf weeds and grass weeds” value in assay [1] is reported as “good”.
Turning to `CC(=O)OCC1(C)CC(c2cc(-n3c(=O)cc(C(F)(F)F)n(C)c3=O)ccc2Cl)=NO1` (centres unmarked) [Compound 321], the “pre-emergence and post-emergence herbicidal activity against broad-leaf weeds and grass weeds” value in assay [1] is recorded as “good”.
Consider `Cn1c(C(F)(F)F)cc(=O)n(-c2ccc(Cl)c(C3=NOC(C)(COC(=O)CCCl)C3)c2)c1=O` (centres unmarked) [Compound 329], for which, in assay [1], the “pre-emergence and post-emergence herbicidal activity against broad-leaf weeds and grass weeds” value was “good”.
`Cn1c(C(F)(F)F)cc(=O)n(-c2cc(C3=NOC(C)(CO)C3)c(Cl)cc2F)c1=O` (centres unmarked) [Compound 42]: the “pre-emergence and post-emergence herbicidal activity against broad-leaf weeds and grass weeds” value in assay [1] is “good”.
`Cn1c(C(F)(F)F)cc(=O)n(-c2ccc(Cl)c(C3=NOC(C)(CO)C3)c2)c1=O` (centres unmarked) [Compound 320]: the “pre-emergence and post-emergence herbicidal activity against broad-leaf weeds and grass weeds” value in assay [1] is “good”.
Turning to `Cn1c(C(F)(F)F)cc(=O)n(-c2ccc(Cl)c(C3=NOC(C)(COC(=O)c4cc(Oc5ccc(C(F)(F)F)cc5Cl)ccc4[N+](=O)[O-])C3)c2)c1=O` (centres unmarked) [Compound 345], in assay [1], the “pre-emergence and post-emergence herbicidal activity against broad-leaf weeds and grass weeds” value is given as “good”.
`Cn1c(C(F)(F)F)cc(=O)n(-c2ccc(Cl)c(C3=NOC(C)(COC(=O)CCc4ccccc4)C3)c2)c1=O` (centres unmarked) [Compound 333]: in assay [1], the “pre-emergence and post-emergence herbicidal activity against broad-leaf weeds and grass weeds” value is on record as “good”.
Same read-out and setting: to `Cn1c(C(F)(F)F)cc(=O)n(-c2ccc(Cl)c(C3=NOC(C)(C(=O)O)C3)c2)c1=O` (centres unmarked) [Compound 282] belongs “good”; to `Cn1c(C(F)(F)F)cc(=O)n(-c2cc(C3=NOC(C)(CBr)C3)c(Cl)cc2F)c1=O` (centres unmarked) [Compound 99], “good”; to `CNC(=O)C1(C)CC(c2cc(-n3c(=O)cc(C(F)(F)F)n(C)c3=O)c(F)cc2Cl)=NO1` (centres unmarked) [Compound 23], “good”.
For `Cn1c(C(F)(F)F)cc(=O)n(-c2ccc(Cl)c(C3=NOC(C)(COC(=O)CCl)C3)c2)c1=O` (centres unmarked) [Compound 328], the “pre-emergence and post-emergence herbicidal activity against broad-leaf weeds and grass weeds” value in assay [1] is “good”.
As to `Cn1c(C(F)(F)F)cc(=O)n(-c2ccc(Cl)c(C3=NOC(C)(COS(C)(=O)=O)C3)c2)c1=O` (centres unmarked) [Compound 366], the “pre-emergence and post-emergence herbicidal activity against broad-leaf weeds and grass weeds” value in assay [1] is “good”.
Still for that read-out and setting: to `CC(C)C(=O)OCC1(C)CC(c2cc(-n3c(=O)cc(C(F)(F)F)n(C)c3=O)ccc2Cl)=NO1` (centres unmarked) [Compound 324] belongs “good”; to `COC(=O)C1CCN(C(=O)C2(C)CC(c3cc(-n4c(=O)cc(C(F)(F)F)n(C)c4=O)c(F)cc3Cl)=NO2)CC1` (centres unmarked) [Compound 35], “good”; to `Cn1c(C(F)(F)F)cc(=O)n(-c2ccc(Cl)c(C3=NOC(C)(COC(=O)C4CC4)C3)c2)c1=O` (centres unmarked) [Compound 323], “good”.
Still for that read-out and setting: the same measure for `CC(C)NC(=O)C1(C)CC(c2cc(-n3c(=O)cc(C(F)(F)F)n(C)c3=O)c(F)cc2Cl)=NO1` (centres unmarked) [Compound 26]: “good”; for `CSCCC(=O)OCC1(C)CC(c2cc(-n3c(=O)cc(C(F)(F)F)n(C)c3=O)ccc2Cl)=NO1` (centres unmarked) [Compound 332]: “good”; for `CN(C)S(=O)(=O)OCC1(C)CC(c2cc(-n3c(=O)cc(C(F)(F)F)n(C)c3=O)c(F)cc2Cl)=NO1` (centres unmarked) [Compound 96]: “good”.

The record behind these values is patent US10550111B2, “Pyrimidine urea compound containing isoxazolines and use thereof” (SHENYANG SINOCHEM AGROCHEMICALS R&D CO., LTD, priority 2014, dated 2020).
